This note sets out measurements from US9814714B2, “Kinase modulation, and indications therefor” (Plexxikon Inc., priority 2015, dated 2017).

As usually defined, the IC50 is the concentration that inhibits the measured activity by half. For orientation: EC50 means the midpoint of the concentration-response curve.

One assay relates to COLO205 cells. As to the kind of experiment: Growth inhibition assay (CellTiter-Glo), COLO205. As to conditions: Homo sapiens. It counts as cell-based. The procedure:
Cells were incubated overnight at 37° C.
2. […] The maximum concentration was about 5 mM.
In general terms: ATP-based viability assays read luminescence as a measure of living cells.

The test system of assay [1] is pERK in IPC-298 cells (NRAS^Q61L). The experiment in a line: Phospho-ERK AlphaScreen assay, pERK activation in IPC-298. It counts as cell-based, human. Particulars: for EC50: Homo sapiens. The procedure: Phospho-ERK AlphaScreen® assay: The degree of ERK phosphorylation was determined using an AlphaScreen® assay where an increase in ERK1/2 phosphorylation at Thr202/Tyr204 brought the donor and acceptor AlphaScreen® beads into close proximity, generating a signal for quantification. To determine the effects of compound treatment on phosphorylation of ERK1/2, cells were plated in a 96-well plate and treated with an 8-point titration of compound for one hour at 37° C. before lysis. To detect pERK, cell lysates were incubated with streptavidin-coated AlphaScreen® donor beads, anti-mouse IgG AlphaScreen® acceptor beads, a biotinylated anti-ERK1/2 rabbit antibody, and a mouse antibody that recognizes ERK1/2 only when it is phosphorylated on Thr202 and Tyr204. The biotinylated ERK1/2 antibody binds to both the streptavidin-coated AlphaScreen® donor beads and to ERK1/2 (regardless of its phosphorylation state), and the phospho-ERK1/2 antibody binds to the acceptor beads and to ERK1/2 that is phosphorylated at Thr202/Tyr204. An increase in ERK1/2 phosphorylation at Thr202/Tyr204 brings the donor and acceptor AlphaScreen® beads into close proximity, generating a signal that can be quantified on an EnVision reader (Perkin Elmer).
Using AlphaScreen® technology, the ability of Formula I to affect the phosphorylation of ERK and MEK in the cells was measured quantitatively. Following treatment with compound, the cells were lysed, and a sample of the lysate was transferred to an assay plate. The lysate was mixed with antibodies directed against total ERK/MEK, antibodies that recognize specific phosphorylation sites on ERK/MEK, AlphaScreen® anti-mouse IgG Acceptor beads, and Streptavidin Donor beads. Upon excitation of the donor beads with laser light at 680 nm, singlet oxygen was produced. This singlet oxygen was rapidly quenched, unless the AlphaScreen® Acceptor beads were in close proximity, in which case a proximity signal can be measured at 580 nm. In the presence of phosphorylated ERK/MEK, there is a very strong proximity signal.
1. One day before the assay, 50,000 cells were plated in each well of a 96-well tissue-culture-treated plate (Corning #3610) in a 50 μL volume. Cells were incubated at 37° C. overnight.
2. Compounds were diluted in DMSO to 500× final concentration. Each compound was plated as an 8-point titration, using 1:3 dilutions in DMSO. The maximum concentration was about 5 mM.
3. 1 μl of compound was added to each well of a 96-well polypropylene plate (Corning #3363). For A375, COLO829, SK-MEL-3, HCT116, and HT-29, the high control was DMSO, and the low control was 10 μM PLX4720 (CAS No. 918505-84-7). For B9 and IPC-298, the high control was 3.33 μM PLX4720, and the low control was DMSO. 4. 249 μL growth media was added to compounds, diluting them 250-fold. 5. […] The compound was incubated with the cells at 37° C. for one hour. 6. The media was aspirated, and the cells were lysed in 50 μL of ice-cold 1× Cell Lysis buffer. The plates were incubated on ice for 5 minutes to allow complete lysis of the cells. 7. A mixture of biotinylated donor antibody, acceptor antibody, and anti-mouse IgG AlphaScreen® acceptor beads in 1× AlphaLISA immunoassay buffer was prepared. 8. 5 μL of lysate was transferred to a 384-well assay plate (Perkin Elmer #6005359). 5 μL of the antibody and acceptor bead mixture was added. The plates were spinned.
For orientation: Alpha assays give light when donor and acceptor beads are brought close together.

A further assay deals with COLO829 cells. The experiment in a line: Growth inhibition assay (CellTiter-Glo), COLO829. Particulars: Homo sapiens. It counts as cell-based. The procedure:
Growth inhibition assay: Cells were plated into a 96-well plate at a density of 3000 cells per well and allowed to adhere overnight. Compounds were dissolved in DMSO, diluted 3-fold to create an 8-point titration and added to cells. After a 72-hour incubation, cell viability was examined using CellTiter-Glo® (Promega).
In order to determine the effects of Formula I on proliferation, a growth assay was established using melanoma cells (A375 and COLO829) and colorectal carcinoma cells (COLO205, HT-29) which each express the BRAFV600E mutation. To show selectivity over wild-type BRAF, several BRAF wild-type cell lines (K562, NOMO-1, MV-4-11 and ML-2) were also examined in the growth assay. The growth assay implemented the Promega CellTiter-Glo Luminescent Cell viability assay, which gives a luminescent readout that is proportional to the amount of ATP present in a cell sample. As ATP levels directly correlate with the number of viable cells, the luminescent signal can be used to determine the potency of Formula I to block the proliferation of the cell lines of interest.
1. 3,000 cells were plated in each well for cell lines A375, COLO205, COLO829, HT-29, and SK-MEL-3. 25,000 cells were plated in each well for cell lines K562, ML-2, MV-4-11, and
NOMO-1 of a 96-well tissue-culture-treated plate (Corning #3610) in a 50 μL volume. Cells were incubated overnight at 37° C.
2. Each test compound was plated as an 8-point titration, using 1:3 dilutions in DMSO. The maximum concentration was about 5 mM. Dilute DMSO and test compound of Formula I 1:250 in growth media.
3. 50 μL of the diluted compound was transferred into 50 μL cells, for a 500-fold final compound dilution (maximum concentration is typically 10 μM and DMSO concentration is 0.2%). The cells were incubated with DMSO/compound for 3 days at 37° C. in 5% CO2.
4. Cell Titer-Glo Luminescent Assay Reagent was brought to room temperature and reconstituted as directed in the product manual. The cell cultures were also brought to room temperature for about 20-30 minutes. […] Luminescence was measured on a Tecan Safire plate reader. […]

Setting [2] is: IPC-298, read-out: pERK activation Mean EC50, IPC-298.
Setting [3] is: IPC-298, NRAS^Q61L, concentration increasing pERK to 50% compared to positive control 10 μM PLX4720, read-out: pERK activation EC50 IPC298.
Setting [4] is: COLO 205, 72-hour incubation, read-out: In vitro growth inhibition IC50, COLO205.
The mark [5] stands for this setting: COLO-829, 72-hour incubation, read-out: In vitro growth inhibition IC50, COLO829.

Where two headings read alike, the source gives them in different places.

As to `O=C(c1c(F)ccc(NS(=O)(=O)N2CC[C@@H](F)C2)c1F)c1c[nH]c2ncc(-c3cnc(C4CC4)nc3)cc12` [Formula I, (3R)—N-[3-[5-(2-cyclopropylpyrimidin-5-yl)-1H-pyrrolo[2,3-b]pyridine-3-carbonyl]-2,4-difluorophenyl]-3-fluoropyrrolidine-1-sulfonamide], the IC50 turned out to be 10 nM with COLO205 cells (COLO 205, 72 h, Table 4, colorectal adenocarcinoma, BRAF V600E/WT, RAS WT, 3 days, read-out: Growth IC50 Colo205) and 100 nM with COLO829 cells (COLO-829, 72 h, Table 4, melanoma, BRAF V600E/WT, RAS WT, 3 days, read-out: Growth IC50 Colo829). In addition, the results for the EC50 in assay [1] (setting [2]) and in assay [1] (setting [3]) were 10000 nM and greater than 200000 nM, respectively.
Consider `CCN(C)S(=O)(=O)Nc1ccc(F)c(C(=O)c2c[nH]c3ncc(-c4cnc(C5CC5)nc4)cc23)c1F` [Formula II, 5-(2-cyclopropylpyrimidin-5-yl)-3-[3-[[ethyl(methyl)sulfamoyl]amino]-2,6-difluoro-benzoyl]-1H-pyrrolo[2,3-b]pyridine], for which the IC50 was found to be 160 nM with COLO205 cells (setting [4]) and 530 nM with COLO829 cells (setting [5]). Also, the “MAPK signaling / pERK increase in IPC-298 (in words)” value in assay [1] (FIG. 1(B), NRAS^Q61L) is recorded as “negligible pERK increase”. The EC50 in assay [1] (setting [3]) was greater than 200000 nM.
Regarding `CCCS(=O)(=O)Nc1ccc(F)c(C(=O)c2c[nH]c3ncc(-c4ccc(Cl)cc4)cc23)c1F` [Vemurafenib, vemurafenib, reference compound], the IC50 in the assay with COLO205 cells (setting [4]) was 250 nM; in the assay with COLO829 cells (setting [5]) it was 690 nM. Moreover, the half-maximal effective concentration (EC50) was 840 nM in assay [1] (setting [2]) and 540 nM in assay [1] (setting [3]).
